Results as given in patent publication US20260091082A1, “CYCLIC PEPTIDE DERIVATIVE COMPOSITION FOR TREATING OR PREVENTING EYE DISEASE” (DKS Co. Ltd., priority 2022, published 2026).
Values joined by “and” are separate entries in the source; they are usually repeats but may differ in a detail not shown here. Equal entries are not always repeated. “Also recorded” adds a separate entry of the source.

How the values were obtained:
[1] = system: laser-induced choroidal neovascularization rat model; assay: Laser-induced choroidal neovascularization rat model: CNV area in choroidal flat mount (FITC-dextran); assay type: in vivo; settings: for Area of CNV Lesion, Mean: 14 days 4 times a day, N=10; for Area of CNV Lesion, Mean / Individual Value of CNV Area in Each Animal: 14 days after laser
Protocol: The groups were set as in Table 8 below. Laser irradiation was performed on the right eye in 10 animals in each group. EYLEA (registered trademark) was administered intravitreally into the right eye of individuals in Group 2 immediately after laser irradiation. For the individuals of Groups 1, 3, and 4, eyedrop administration of the administration substances of each group was performed four times a day from the day of laser irradiation to the day before eyeball enucleation.
Animals to be laser-irradiated were subjected to pupil dilation with Mydorin (registered trademark) P ophthalmic solution, and subjected to general anesthesia by intramuscular injection of a mixed solution of ketamine hydrochloride/xylazine hydrochloride (4:1, v/v) (1 mL/kg) into the thigh muscle. Then, fundus of the right eye was then observed using a slit lamp (SL-130, Carl Zeiss Meditec AG), and laser irradiation was performed at six locations using a green laser photocoagulation device (GYC-500, Nidek Co., Ltd.), avoiding thick capillaries of the retina. The laser conditions were a wavelength of 532 nm (green), a spot size of 50 μm, an irradiation time of 0.1 sec, and a laser irradiation intensity of 300 mW. Except for the individuals to be administered EYLEA (registered trademark), sodium hyaluronate (Hyalein (registered trademark) ophthalmic solution 0.3%, Santen Pharmaceutical Co., Ltd.) as an eye drop for treatment of corneal and conjunctival epithelial disorders was instilled into both eyes after laser irradiation.
Levofloxacin hydrate (CRAVIT (registered trademark) 1.5% ophthalmic solution, Santen Pharmaceutical Co., Ltd.) as a broad-spectrum antibacterial eye drop and oxybuprocaine hydrochloride (Benoxil (registered trademark) 0.4% ophthalmic solution, Santen Pharmaceutical Co., Ltd.) as an ophthalmic topical anesthetic were once instilled into the right eye of rats in Group 2 (EYLEA (registered trademark) administration group) after end of laser irradiation, and then EYLEA (registered trademark) was intravitreally administered at a dose of 200 μg/5 μL/eye using a 33 G two-stage injection needle and a microsyringe (Ito Manufacturing Co., Ltd.). The microsyringe was washed with D-PBS before administration. Hyalein (registered trademark) ophthalmic solution 0.3% was instilled into both eyes after intravitreal administration.
Eyedrop administration of the test substance and the negative control administration solution was performed in a volume of 5 μL/eye using a micropipette (Eppendorf Research Plus V, Eppendorf) at the administration period and the number of times determined for each group (see Group constitution table of Item (2)). At that time, since a test substance solution adheres to an outer side of the tip, care was taken so that the adhering test substance solution was wiped off with a Kimwipe once each time of eyedrop administration, and an excessive amount of the test substance solution was not instilled. In addition, although the tip of the pipette tip was sharp, care was taken not to damage the eyeball surface. Immediately before administration, the administration solution was lightly (about several seconds) centrifuged using a small microcentrifuge Wonder Spin, and the supernatant was used for administration.
Fourteen days after laser irradiation (Day 14), under general anesthesia by intramuscular femoral administration (1 mL/kg) of a ketamine hydrochloride/xylazine hydrochloride (4:1, v/v) mixed solution, a 4% FITC-dextran solution was administered to the tail vein at a dose of 40 mg/l mL/animal.
After 1 minute from the tail vein administration of the 4% FITC-dextran solution, rats were euthanized by excessive anesthesia by administration of 129.6 mg/mL sodium pentobarbital solution and the right eye ball was enucleated. The enucleated eyeball was fixed in a 4% paraformaldehyde phosphate buffer (FUJIFILM Wako Pure Chemical Corporation, hereinafter referred to as 4% PFA) for 12 to 30 hours at normal temperature. […]

[2] = General condition observation (clinical signs) in anterior chamber aqueous humor pressure load rat model; assay type: in vivo, Rat; Slc: SD; set-up: key: —: No anormal sign; settings: 1 mg/mL eye drop, right eye, per animal
Protocol: • Species and strains: Rat; Slc: SD • Number of animals on arrival and sex: 50 males • Age in weeks at arrival: 6 weeks old • Body weight range at arrival: 147.2 to 170.0 g • Source: Japan SLC, Inc.
The body weight of the animals was measured at a frequency of once a week or more, and the general condition observation was performed every day.
• Administration route: Eyedrop administration, intravenous administration • Administration method (eyedrop): Eyedrop administration was performed on a treated eye (right eye) of a rat using a micropipette 4 times a day (at intervals of 1.5 hours or more). • Administration method (intravenous): The amount of administration solution, calculated from the body weight on the day of administration, was administered from the tail vein using a syringe and an injection needle about 30 minutes before ischemic load. • Time of administration: Administration was performed according to the following schedule.

CC[C@@]1(C)Oc2cc(ccc2O)C[C@H](NC)C(=O)N[C@@H](C(C)C)C(=O)N[C@@H]1C(=O)N[C@@H](CC(=O)O)C(=O)O [Compound 9]
Area of CNV Lesion, Mean ([1]; Group 3, eye drop 5 μg/5 μL/eye (1 mg/mL)): 471160.8 pixel | Individual Value of CNV Area in Each Animal ([1]; Group 3 individual animals, eye drop 5 μg/5 μL/eye): 330375.8 pixel and 515551.8 pixel and 492136.5 pixel and 558285.0 pixel and 496494.0 pixel and 466828.5 pixel and 460996.3 pixel and 460127.0 pixel and 449544.0 pixel and 481268.8 pixel | Area of CNV Lesion, Mean ([1]; Group 4, eye drop 50 μg/5 μL/eye (10 mg/mL)): 444173.4 pixel | Individual Value of CNV Area in Each Animal ([1]; Group 4 individual animals, eye drop 50 μg/5 μL/eye): 313878.7 pixel and 591175.3 pixel and 382504.5 pixel and 527509.5 pixel and 426003.0 pixel and 447473.0 pixel and 394615.5 pixel and 494652.3 pixel and 438691.5 pixel and 425230.3 pixel | CNV area compared with Group 1 (saline) / drug efficacy, in words ([1]; eyedrop 1 mg/mL (Group 3) and 10 mg/mL (Group 4), Dunnett's test): no significant difference in CNV area was observed; also recorded: no drug efficacy on CNV area was observed | Dose dependence of CNV area reduction, in words ([1]; eyedrop 1 mg/mL and 10 mg/mL, 4 times/day for 14 days): reduction in CNV area correlated with the eyedrop administration dose was confirmed | Clinical signs ([2]; Day 0, animals 201-210 (test group 2, dosed on the 2 days before model creation)): — | Clinical signs ([2]; Day 0, animals 301-310 (test group 3, dosed 13 days from the day after model creation)): — | Clinical signs ([2]; Day 1, animals 201-210 (test group 2, dosed on the 2 days before model creation)): — | Clinical signs ([2]; Day 1, animals 301-310 (test group 3, dosed 13 days from the day after model creation)): — | Clinical signs ([2]; Day 2, animals 201-210 (test group 2, dosed on the 2 days before model creation)): — | Clinical signs ([2]; Day 2, animals 301-310 (test group 3, dosed 13 days from the day after model creation)): — | Clinical signs ([2]; Day 3, animals 201-210 (test group 2, dosed on the 2 days before model creation)): — | Clinical signs ([2]; Day 3, animals 301-310 (test group 3, dosed 13 days from the day after model creation)): — | Clinical signs ([2]; Day 4, animals 201-210 (test group 2, dosed on the 2 days before model creation)): — | Clinical signs ([2]; Day 4, animals 301-310 (test group 3, dosed 13 days from the day after model creation)): — | Clinical signs ([2]; Day 5, animals 201-210 (test group 2, dosed on the 2 days before model creation)): — | Clinical signs ([2]; Day 5, animals 301-310 (test group 3, dosed 13 days from the day after model creation)): — | Clinical signs ([2]; Day 6, animals 201-210 (test group 2, dosed on the 2 days before model creation)): — | Clinical signs ([2]; Day 6, animals 301-310 (test group 3, dosed 13 days from the day after model creation)): — | Clinical signs ([2]; Day −1, animals 201-210 (test group 2, dosed on the 2 days before model creation)): — | Clinical signs ([2]; Day −1, animals 301-310 (test group 3, dosed 13 days from the day after model creation)): — | Clinical signs ([2]; Day −2, animals 201-210 (test group 2, dosed on the 2 days before model creation)): — | Clinical signs ([2]; Day −2, animals 301-310 (test group 3, dosed 13 days from the day after model creation)): —
